Test results: ChEMBL document CHEMBL1124941, “Assessment of the in vivo and in vitro opioid activity of bridged hexahydroaporphine and isoquinoline molecules” (J Med Chem, 1990)

Key:
Mus musculus = species: Mus musculus; experiment: Effective dose required for antinociceptive activity in mouse; type: functional
Opioid receptor [1] = biological target: T1, Opioid receptor (Rattus norvegicus, UniProt P33533+P34975+P33535); type: tissue-based, Brain
Description: Concentration that produces 50% inhibition of stereospecific [3H]naloxone binding to opioid receptors in rat brain in absence of sodium.

Opioid receptor [2] = biological target: T1, Opioid receptor; type: tissue-based, Brain; remark: listed apart in the source
Description: Concentration that produces 50% inhibition of stereospecific [3H]naloxone binding to opioid receptors in rat brain in presence of sodium.

SMILES | ED50 (Mus musculus) | IC50 (Opioid receptor [1]) | IC50 (Opioid receptor [2])
CN1CC[C@]23c4c5ccc(O)c4O[C@H]2[C@@H](O)C=C[C@H]3[C@H]1C5.CN1CC[C@]23c4c5ccc(O)c4O[C@H]2[C@@H](O)C=C[C@H]3[C@H]1C5.O=S(=O)(O)O | 0.0794 µg | – | –
COc1ccc2c(c1)C1CCC3CCC14C3CCN(C)C4C2.Cl (stereo not given) | 5.42 µg | – | –
CN1CCC2C3CCC4c5cc(O)ccc5CC1C42CC3.Cl (stereo not given) | 4.07 µg | 0.472 µM | 5.59 µM
